Values quoted from earlier work, collected in patent US20220315503A1, “METHODS FOR PRODUCING TREATED MANURE” (COMMONWEALTH SCIENTIFIC AND INDUSTRIAL RESEARCH ORGANISATION, priority 2019, published 2022).
Where two headings read alike, the source gives them in different places.

What was measured:
[1] = initial concentrations 132 to 177 μg/L; 1.5 hours packed-bed detention time
[2] = system: production of CH4 in rumen fluid
enteric CH4 emission [3] = conditions: beef cattle; administered in animal feed
enteric CH4 emission [4] = conditions: dairy cattle
enteric CH4 emission [5] = conditions: sheep

In the case of `BrC(Br)Br` [bromoform, tribromomethane], the “reduction (degradation) under anaerobic conditions” value [1] is given as greater than 99%, the “production of CH4 compared to control in rumen fluid” value ([2]; concentration of 1 μM) is given as “inhibit the production of CH4” and the “production of CH4 compared to control in rumen fluid” value ([2]; concentrations ≥5 μM) is given as “inhibit the production of CH4”.

In the case of `ClC(Br)Br` [dibromochloromethane], the “production of CH4 compared to control in rumen fluid” value ([2]; concentration of 1 μM) is listed as “inhibit the production of CH4” and the “production of CH4 compared to control in rumen fluid” value ([2]; concentrations ≥5 μM) is listed as “inhibit the production of CH4”.

In the case of `O=[N+]([O-])OCCCO` [3NOP, 3-nitrooxypropanol], the “reduction of CH4 emission” value (enteric CH4 emission [3]) is given as 59%, the “reduction in CH4 emissions” value (enteric CH4 emission [4]) is given as “up to 60%” and the “overall CH4 yield of spiked feces” value (CH4 yield of feces; feces spiked with 200 mg kg^−1 dry matter) is given as “no significant difference”. The “downstream effect on CH4 emissions of the feces” value (CH4 yield of feces; inhibitor included in animal diets) was “no significant downstream effect” and the “reduction in CH4 emissions” value (enteric CH4 emission [5]) was 24%.
